Values joined by “and” are separate entries in the source; they are usually repeats but may differ in a detail not shown here. Identical values can stand only once. “Also recorded” adds a separate entry of the source.
How the values were obtained:
[1] = Cold storage of fat emulsion (Intralipid) with ester admixture: visual inspection, pH, mean particle size; assay type: physicochemical; conditions: for emulsion quality (oil droplets, creaming, oil separation), daily inspection: Example 5: mother concentrate in Intralipid 10%; for emulsion quality (oil droplets, creaming, oil separation), daily inspection / emulsion stability, daily visual inspection: +5°C; for emulsion quality (oil droplets, creaming, oil separation), daily inspection / emulsion quality, daily visual inspection / emulsion stability, daily visual inspection: 5 days; for emulsion quality, daily visual inspection: 5°C
Description: A so-called mother concentrate was prepared by dissolving 6 g of egg-yolk phospholipids in 40 g of 4-methyl-3-oxo-pentanoic acid ethyl ester at +60°C, while stirring. 34 g of 99% ethyl alcohol were then added to the solution, whereafter the solution was cooled to room temperature and dispensed into 20 ml glass flasks. Nitrogen gas was then bubbled through the liquid and the flasks then stoppered and capsuled. The bottles were then autoclaved at +120°C and at 118 kPa for 20 minutes. A 10% fat emulsion for parenteral nutrient administration (Intralipid^R retailed by KabiVitrum AB, Stockholm) was added to the preparation under strict asceptic conditions, to a 4-methyl-3-oxo-pentanoic acid ethyl ester concentration of 0.2, 1 and 3% respectively. The emulsion was shaken for 5 minutes in a shaking machine and then placed in a cold environment (+5°C). The emulsion was thereafter observed over a 5 day period, wherewith a daily inspection was carried out to assess the formation of oil droplets, creaming or oil separation. The assessment was made in comparison with a known emulsion for parenteral use (Intralipid^R 10%). […] Subsequent to 5 days storage, an analysis was made of the pH and mean particle size in a Coulter nanosizer. The following values were obtained:
(§1) A so-called mother concentrate produced by dissolving 6 g egg-yolk phospholipids in 40 g of 4-methyl-3-oxo-pentanoic acid-ethyl ester at +60°C, while stirring the system. 34 g of 99% ethyl alcohol were then added to the solution, whereafter the solution was cooled to room temperature and dispensed into 20 ml glass flasks. Nitrogen gas was perculated through the contents of the flasks, and the flasks subsequently stoppered and fitted with capsules. The flasks were then autoclaved at 120°C and 118 kPa over a period of 20 minutes. This preparation was added to a 20% fat emulsion (Intralipid^R) under strict aseptic conditions, such that the concentation of 4-methyl-3-oxo-pentanoic acid ethyl ester was 0.2 and 1 and 3% respectively. The emulsion was shaken for 5 minutes in a shaker and then placed in a cold environment (5°C). The emulsion was inspected over a period of 5 calender days, wherewith a visual inspection was carried out daily in order to ascertain the occurrence of any oil droplets that may form, creaming or oil separation. The assay was effected by comparison with a known emulsion for parenteral use (Intralipid^R 20%). […] The pH of the emulsion was measured after a 5 day storage period. The mean particle size was measured in a Coulter^R nanosizer. The following values were obtained:
as §1, with “prepara tion” for “preparation”, “10%” for “20%”, “10%).” for “20%).”, “obtained: […]” for “obtained:”

[2] = tested on: Escherichia coli ATCC 8739; test: Microorganism count in ester emulsions diluted with phosphate buffer, albumin solution or TSB (Example 16); assay type: cell-based
Description: The emulsions contained egg-yolk phospholipid 1,2% and sterile water in addition to ester. The emulsions were prepared aseptically, by emulsifying sterile-filtered ester with a sterilized dispersion of egg-yolk phospholipids.
Aliquots of these emulsions were diluted at a ratio of 1 to 10 with phosphate buffer (0.01 M, pH=7.0), seruma albumin solution 20% and Tryptone soya broth (TSB) respectively. Escherichia coli ATCC 8739 were added to the emulsions. The emulsions were then incubated for 20 hours at +37°C. The microorganism count was carried out after 1-5 minutes, 2 hours and 20 hours, in the manner described in microbiological literature. Parallel with the above tests, there was made a control of phosphate buffer and TSB with additions of Escherichia coli ATCC 8739. The latter substrate was tested to ascertain whether or not the microorganisms were viable. […] The starting concentration was about 10⁴. In the samples containing 4-methyl-3-oxo-pentanoic acid ethyl ester, the combination with phosphate buffer was 0 after 5 minutes, 0 after 2 hours and 0 after 20 hours. In the combination with 20% albumin solution, the microorganism count was 0 after 5 minutes, no count was taken after 2 hours, and 0 after 20 hours. […], the count in the combination with TSB was 0, no count was taken after 2 hours, and 0 after 20 hours.
In the samples containing 5-methyl-3-oxo-hexanoic acid ethyl ester, the count in the combination with phosphate buffer was 10 after 5 minutes, 0 after 2 hours, and 0 after 20 hours. The combination with 20% albumin solution was 10² after 5 minutes, no count was taken after 2 hours, and 0 after 20 hours. In the combination with TSB, the count was 10 after 5 minutes, no count was taken after 2 hours, and 0 after 20 hours. […] All microorganisms were eliminated within 20 hours by both esters at the same low concentration.

[3] = Total parenteral nutrition (TPN) with ester as energy substitute in rats; conditions: 9 days
Description: Sprague-Dawley male rats weighing 180-190 g were sur­gically fitted with a central vein catheter protected by a saddle (Roos et al, 1981). Total parenteral nutrition (TPN) was administered in accordance with the following standard formula: Fat: 8 g/kg body weight and 24 hours Nitrogen: 1,2 g/kg body weight and 24 hours Total energy supplied: 1257 kJ/kg body weight and 24 hours Liquid: 300 ml/kg body weight and 24 hours The glucose to fat ratio was 70-30 energy percent. The energy percentage obtained from the energy substitutes during the test period corresponded to about 5% NPC. The TPN-mixture was obtained by mixing Vamin^R 14 (a solution of essential and non-essential amino acids for paren­teral nutrient administration, retailed by KabiVitrum AB) with no electrolytes, glucose solution 50% and Intralipid^R 20% in suitable proportions and adding adequate quantities of electrolytes, trace minerals and vitamins. Subsequent to infusing the rats continuously for one week (20 hours/day), the animals were divided randomly into three groups, with 6 animals in each group. The animals of one group were administered with the same TPN-formula as that previously mentioned (the reference group). […] The compounds were given in a dosage of 2 g/kg body weight and 24 hours in a yield corres­ponding to equivalent glucose energy quantities. In other respects, the TPN-program or formula was the same as that for the reference group. The experiment was then continued for a further 9 days, during which the weights of the animals were recorded daily and urine collected and frozen. At the end of the test period, the rats were killed by heart puncture while under a pentobarbital anesthetic and an autopsy was performed on the rat carcasses with microscopic examination. The body organs were sent to a laboratory for pathological assay.

[4] = Example 5: Intralipid 10%, 0.2% admix, after 5 days storage
[5] = Example 5: Intralipid 10%, 1% admix, after 5 days storage
[6] = Example 5: Intralipid 10%, 3% admix, after 5 days storage
[7] = Example 30: Intralipid 20%, 0.2% admix
[8] = Example 30: Intralipid 20%, 1% admix
[9] = Example 30: Intralipid 20%, 3% admix
[10] = Example 31: Intralipid 10%, 0.2% admix
[11] = Example 31: Intralipid 10%, 1% admix
[12] = Example 31: Intralipid 10%, 3% admix
[13] = Example 31: Intralipid 10%, 5% admix

For `CCOC(=O)CC(=O)C(C)C` [4-methyl-3-oxo-pentanoic acid ethyl ester], which “Mean particle size (single readings, Coulter nanosizer)” value [1, 4] is on record?
Its value is 258 and 264 and 267 and 250.

And the “Mean particle size, X” value [1, 4]?
Its value is 261.

What about the pH [1, 4] of the same compound?
Its pH is 7.2.

And the “Mean particle size (single readings, Coulter nanosizer)” value [1, 5]?
Its value is 245 and 253 and 250 and 235 and 242.

And the “Mean particle size, X” value [1, 5]?
The value was 246.

And the pH [1, 5]?
Its pH is 7.0.

What about the “Mean particle size (single readings, Coulter nanosizer)” value [1, 6] of the same compound?
The value was 264 and 258 and 248 and 250.

What about the “Mean particle size, X” value [1, 6] of the same compound?
Its value is 258.

And the pH [1, 6]?
Its pH is 6.8.

What about the “emulsion quality (oil droplets, creaming, oil separation), daily inspection” value ([1]; 1% addition) of the same compound?
The value was “had no affect on the quality”.

What about the “emulsion quality (oil droplets, creaming, oil separation), daily inspection” value ([1]; 3% addition) of the same compound?
The value was “fully acceptable, but deteriorated slowly during day 4 and 5”.

What about the “Mean particle size (single readings, Coulter nanosizer)” value [1, 7] of the same compound?
Its value is 325 and 316 and 320 and 327.

What about the “Mean particle size, X” value [1, 7] of the same compound?
Its value is 323.

What about the pH ([1]; Example 30: Intralipid 20%, 0.2% admix, after 5 day storage) of the same compound?
The pH was 7.3.

What about the “Mean particle size (single readings, Coulter nanosizer)” value [1, 8] of the same compound?
Its value is 323 and 327 and 329 and 319 and 336.

What about the “Mean particle size, X” value [1, 8] of the same compound?
Its value is 326.

And the pH ([1]; Example 30: Intralipid 20%, 1% admix, after 5 day storage)?
Its pH is 6.9.

And the “Mean particle size (single readings, Coulter nanosizer)” value [1, 9]?
Its value is 322 and 319 and 320 and 333.

What about the “Mean particle size, X” value [1, 9] of the same compound?
Its value is 323.

And the pH ([1]; Example 30: Intralipid 20%, 3% admix, after 5 day storage)?
The pH was 6.5.

What about the “emulsion quality, daily visual inspection” value ([1]; Example 30: mother concentrate in Intralipid 20%, 0.2% addition) of the same compound?
The value was “No change in quality”.

What about the “emulsion quality, daily visual inspection” value ([1]; Example 30: mother concentrate in Intralipid 20%, 1% addition) of the same compound?
Its value is “No change in quality”.

What about the “emulsion quality, daily visual inspection” value ([1]; Example 30: mother concentrate in Intralipid 20%, 3-percent mixture) of the same compound?
Its value is “fully acceptable over the first 3 days”.

What about the “Mean particle size (single readings, Coulter nanosizer)” value [1, 10] of the same compound?
Its value is 241 and 239 and 246.

And the “Mean particle size, X” value [1, 10]?
The value was 241.

What about the pH ([1]; Example 31: Intralipid 10%, 0.2% admix, after 5 day storage) of the same compound?
Its pH is 7.3.

What about the “Mean particle size (single readings, Coulter nanosizer)” value [1, 11] of the same compound?
Its value is 244 and 249 and 246 and 251.

And the “Mean particle size, X” value [1, 11]?
The value was 247.

What about the pH ([1]; Example 31: Intralipid 10%, 1% admix, after 5 day storage) of the same compound?
Its pH is 6.9.

And the “Mean particle size (single readings, Coulter nanosizer)” value [1, 12]?
Its value is 249 and 246 and 240 and 236 and 243.

And the “Mean particle size, X” value [1, 12]?
The value was 243.

What about the pH ([1]; Example 31: Intralipid 10%, 3% admix, after 5 day storage) of the same compound?
The pH was 6.7.

And the “Mean particle size (single readings, Coulter nanosizer)” value [1, 13]?
Its value is 244 and 252 and 254.

And the “Mean particle size, X” value [1, 13]?
The value was 251.

What about the pH ([1]; Example 31: Intralipid 10%, 5% admix, after 5 day storage) of the same compound?
Its pH is 6.7.

And the “emulsion quality, daily visual inspection” value ([1]; Example 31: mother concentrate in Intralipid 10%, 0.2% addition)?
Its value is “No change in quality”.

What about the “emulsion quality, daily visual inspection” value ([1]; Example 31: mother concentrate in Intralipid 10%, 1% addition) of the same compound?
Its value is “No change in quality”.

And the “emulsion quality, daily visual inspection” value ([1]; Example 31: mother concentrate in Intralipid 10%, 3% addition)?
Its value is “No change in quality; also recorded: fully acceptable over the first 3 days”.

What about the pH ([1]; Example 34: 20 percent fat emulsion, 5% emulsion, end of 5-day period (reference emulsion pH=7.9)) of the same compound?
The pH was 5.0.

What about the “emulsion stability, daily visual inspection” value (“emulsion stability” for short) ([1]; Example 34: pure ester in 10% fat emulsion (Intralipid), 0.2%) of the same compound?
Its value is “stable over the whole of the test period”.

And the “emulsion stability” value ([1]; Example 34: pure ester in 10% fat emulsion, 1%)?
The value was “stable over the whole of the test period”.

What about the “emulsion stability” value ([1]; Example 34: pure ester in 10% fat emulsion, 3%) of the same compound?
Its value is “stable over the whole of the test period”.

And the “emulsion stability” value ([1]; Example 34: pure ester in 10% fat emulsion, 5%)?
Its value is “stable over the whole of the test period; also recorded: stable over the first 2 days”.

What about the “emulsion stability” value ([1]; Example 34: pure ester in 20 percent fat emulsion, 1% admixture) of the same compound?
Its value is “remained stable over the whole of the test period”.

What about the “emulsion stability” value ([1]; Example 34: pure ester in 20 percent fat emulsion, 5% admixture) of the same compound?
Its value is “remained stable for 2 days”.

What about the microorganism count ([2]; 20% emulsion diluted 1 to 10 with phosphate buffer, after 5 minutes, starting concentration about 10⁴) of the same compound?
Its microorganism count is 0.

What about the microorganism count ([2]; diluted 1 to 10 with 20% albumin solution, after 5 minutes) of the same compound?
The microorganism count was 0.

What about the microorganism count ([2]; diluted 1 to 10 with 20% albumin solution, after 20 hours) of the same compound?
The microorganism count was 0.

And the microorganism count ([2]; diluted 1 to 10 with TSB, after 4 hours)?
The microorganism count was 0.

And the microorganism count ([2]; diluted 1 to 10 with TSB, after 20 hours)?
The microorganism count was 0.

What about the microorganism count ([2]; diluted 1 to 10 with phosphate buffer, after 2 hours) of the same compound?
Its microorganism count is 0.

And the microorganism count ([2]; diluted 1 to 10 with phosphate buffer, after 20 hours)?
Its microorganism count is 0.

What about the “toxicity at the dosages tested” value ([3]; 2 g/kg body weight and 24 hours) of the same compound?
The value was “non-toxic”.

What about the “average growth per day during the whole of the test period” value ([3]; ester 2 g/kg body weight and 24 hours in place of equivalent glucose energy) of the same compound?
The value was 3.7 ± 0.8 g.
